Here are results for three compounds from patent publication US20140243396A1, “METHOD OF TREATING MUCOEPIDERMOID CARCINOMA” (DANA-FARBER CANCER INSTITUTE, INC., priority 2011, published 2014).

The conditions of series [1]: a few small 2003 studies; cited from earlier work.
For series [2] the following is noted: in vivo; cited from earlier work.
The test system of series [3] is H3118 cells. The series can be described thus: cAMP measurement, enzyme immunoassay. Format: cell-based. The conditions noted are these: compared to DMSO control. An excerpt: (§1) FIG. 5 illustrates inhibition of PDE4B increased cellular cAMP levels and inhibited PI3-kinase signaling. […] Columns: mean, bars: SD (n=3). B. Knock-down of PDE4B increased MEC cell cAMP level. n=3. **p<0.01, compared to control cells. Columns: mean, bars: SD (n=3). C. […] The same blot was stripped and probed with AKT or β-actin antibody. Image was cropped and auto-leveled by Photoshop. A representative of three independent experiments.
(§2) Cells were trypsinized and washed once with 1×PBS after treatment. The cell pellet was re-suspended in 100 μl of 0.1M HCL. cAMP amount was measure by Direct Cyclic AMP Enzyme Immunoassay Kit (#900-066, Assay Designs, Inc., Ann Arbor, Mich.) according to the manufacturer's protocol. The acetylated version of the kit was used.

Series [4] has as its system HSY cells. The series can be described thus: cAMP measurement, enzyme immunoassay. The conditions noted are these: inhibitors. Format: cell-based.
Description: as §1, §2

In series [5] the test system is H292 cells. The series can be described thus: Cell growth, cell count by trypan blue exclusion. The conditions noted are these: PDE4B knock-down, day 5 post-transduction, compared to scramble control. Format: cell-based. On the procedure:
(§3) FIG. 3 illustrates knock-down of PDE4B inhibits fusion positive MEC cell growth, causes cell cycle arrest and induces apoptosis. A. H3118 cell lysate was prepared on day 5 post-transduction and subjected to western blot analysis. Image was cropped and auto-leveled by Photoshop. A representative of three independent experiments. B. 1×10^5 MEC cells were infected twice by shRNA No. 1 and No. 2 and cell number was count on day 5 post-transduction by trypan blue exclusion. Columns: mean, bars: SD (n>3). *p<0.05, **p<0.01, compared with scramble control virus infected cell growth. C. 1×10^5 cells were infected twice by shRNA No. 2. Cell cycle was determined by PI staining followed by FACS analysis on day 5 post-transduction, n=3. D. 1×10^5 cells were infected twice by shRNA No. 2. Apoptosis assay was performed by PI and Annexin-V staining and analyzed by flow cytometry on day 5 post-transduction, Columns: mean, bars: SD (n=3). *p<0.05, compared with control cells.
(§4) The Methods were described previously (Chen et al. Genes Cancer, 1:822-835 (2010)). Cell growth: 1-2×10^5 cells were infected with lenti-virus harboring specific shRNAs. On day 5 post infection, cells were counted by trypan blue exclusion. MTS proliferation assay (Promega, Madison, Wis.): 1-2×10^3 cells were treated with LY-294002, Compound A or DMSO in the concentration as indicated in FIG. 6A. MTS activities were measured on day 5. Cell cycle analysis: 1×10^5 cells were treated with inhibitors or infected with viruses. DNA amount was measured by flow cytometry analysis (BD FACScans). Apoptosis assay: 1×10^5 cells were treated with inhibitors or infected with virus. Cell viability was measured using the Annexin-V-FLUOS Staining Kit (Roche Diagnostics, Indianapolis, Ind.) by flow cytometry analysis (BD FACScans).

Series [6] relates to H3118 cells. The series can be described thus: Cell growth, cell count by trypan blue exclusion. The conditions noted are these: PDE4B knock-down, day 5 post-transduction, compared to scramble control. Format: cell-based. The protocol: as §3, §4
Series [7] concerns HSY cells. The series can be described thus: Cell growth, cell count by trypan blue exclusion. Format: cell-based. The settings on record: HSY cells, PDE4B knock-down. On the procedure: (§5) FIG. 2 illustrates inhibition of PDE4B by pharmacological inhibitor rolipram plus forskolin prevents cell growth, causes cell cycle arrest and induces apoptosis in fusion positive MEC cells. Rolipram (R), forskolin (FK), Rolipram plus forskolin (R+FK) or DMSO. Columns: mean, bars: SD (n>3), *p<0.05, **p<0.01, ***p<0.001, compared to HSY cell growth. B. 1×10^5 cells were treated with 50 μM R plus 20 μM FK or DMSO for 24 hours. C. 1×10^5 cells were treated with 50 μM rolipram plus 20 μM forskolin with or DMSO for 48 hours. Apoptosis assay was performed by PI and Annexin-V staining and analyzed by flow cytometry. Columns: mean, bars: SD (n=3). *p<0.05, compared with DMSO treated cells.
as §3, §4

For series [8], the system named is H292 cells. The series can be described thus: Cell cycle analysis by flow cytometry. The conditions noted are these: PDE4B knock-down, day 5 post-transduction; scramble control 50%. Format: cell-based. The protocol: as §5, §3
(§6) The Methods were described previously (Chen et al. Genes Cancer, 1:822-835 (2010)). […] On day 5 post infection, cells were counted by trypan blue exclusion. […] MTS activities were measured on day 5. […] DNA amount was measured by flow cytometry analysis (BD FACScans). […] Cell viability was measured using the Annexin-V-FLUOS Staining Kit (Roche Diagnostics, Indianapolis, Ind.) by flow cytometry analysis (BD FACScans).
For orientation: Flow cytometry measures light scatter and fluorescence of single cells or particles in a stream.

In series [9] the test system is H3118 cells. Nature of the series: Cell cycle analysis by flow cytometry. Format: cell-based. The conditions noted are these: PDE4B knock-down, day 5 post-transduction; scramble control 57%. On the procedure: as §5, §3, §6
Series [10] relates to HSY cells. Nature of the series: Cell cycle analysis by flow cytometry. The settings on record: PDE4B knock-down. Format: cell-based. The protocol: as §5, §3, §6
Series [11] relates to H292 and H3118 cells. Nature of the series: Apoptosis assay, PI and Annexin-V staining. Format: cell-based. The settings on record: PDE4B knock-down, day 5 post-transduction. The protocol:
as §5
(§7) FIG. 3 illustrates knock-down of PDE4B inhibits fusion positive MEC cell growth, causes cell cycle arrest and induces apoptosis. […] Cell cycle was determined by PI staining followed by FACS analysis on day 5 post-transduction, n=3. […] Apoptosis assay was performed by PI and Annexin-V staining and analyzed by flow cytometry on day 5 post-transduction, Columns: mean, bars: SD (n=3). *p<0.05, compared with control cells.
(§8) The Methods were described previously (Chen et al. Genes Cancer, 1:822-835 (2010)). […] On day 5 post infection, cells were counted by trypan blue exclusion. […] MTS activities were measured on day 5. […] DNA amount was measured by flow cytometry analysis (BD FACScans). […]

Series [12] has as its system HSY cells. The series can be described thus: Apoptosis assay, PI and Annexin-V staining. Format: cell-based. The conditions noted are these: PDE4B knock-down, day 5 post-transduction. On the procedure:
as §5, §7, §8

In series [13] the test system is H3118 cells. The series can be described thus: In vivo murine xenograft model. The arrangement: species or system SCID hairless (SHO) mice. An excerpt: FIG. 4 illustrates knock-down of PDE4B inhibited MEC cell growth in vivo. A. Tumor volume in SCID hairless mice. Points: mean of 5 tumors, bars: SD (n=5). ***p<0.001, compared to control tumor. B. Representative picture of the tumors dissected from the mice after sacrifice on day 30. Five pair (shPDE4B vs. scramble control) of tumors was shown (n=5). C. Tumor weight from SCID hairless mice. Tumors were weighted on day 30 at sacrifice. Columns: mean, bars: SD (n=5). ***p<0.001, compared to control tumor weight. D. RT-qPCR analysis of PDE4B expression from the tumor biopsies. Columns: mean, bars: SD (n=3). ***p<0.001, compared to control tumor.
Mice were maintained and treated in accordance with institutional guidelines of Dana Farber Cancer Institute Animal Resource Facilities. H3118 cells were infected twice with shPDE4B-2 or scramble control virus. On day three post-transduction, 5×10^6 shPDE4B cells were injected subcutaneously (s.c.) into one flank of a SCID hairless (SHO) mice (Charles River Laboratories International, Inc., Wilmington, Mass.) and 5×10^6 control cells were injected into the opposite flank (Dubrovska et al., Proc Natl Acad Sci USA, 2009, 106: 268-273; Serra et al. Cancer Res, 2008, 68: 8022-8030). A total of five mice were used. The tumor volume was measured every two days starting from day 10, volume=(length×width2)×(π/6). Mice were sacrificed on day 30. The tumors were excised and the weight was measured.

`CCOc1ccc(/C=C2\NCCc3cc(OCC)c(OCC)cc32)cc1OCC` [Drotaverine]: the “effective in treating renal colic” value in series [1] is listed as about 80%. For the same compound, the adverse effects frequency in [2] was 0.9%.

As for `C=C[C@@]1(C)CC(=O)[C@]2(O)[C@@]3(C)[C@@H](O)CCC(C)(C)[C@@H]3[C@H](O)[C@H](OC(C)=O)[C@@]2(C)O1` [forskolin], the “increase of cAMP levels” value in [3] is 4 fold. Besides, the “effect on cAMP levels (in words)” value in [4] was “no effect”.

For “shRNA #2: shRNA lenti-viral construct targeting PDE4B, SEQ ID NO 2 (CCGGGCGCAGAGAGTCATTTCTCTACTCGAGTAGAGAAATGACTCTCTGCGCTTTTTG)”, the growth inhibition in [5] came to 74%; in series [6], 83%. Besides, the “cell growth (in words)” value in [7] is on record as “slight growth reduction”. Further, the figures for the “cells arrested at G0/G1 phase” value in series [8] and in [9] were 78% and 79%, respectively. Also, the “cell cycle arrest (in words)” value in series [10] is “much less effect”. The “apoptosis (in words)” value in series [11] was “significant apoptosis”; in series [12], “no significant effect”. Also, the “tumor growth in vivo (in words)” value in [13] (H3118 cells with PDE4B knock-down vs control cells, s.c., tumor volume every two days) is “significantly slower”. For the same compound, the “repression of PDE4B expression in tumor biopsies” value in series [13] (RT-qPCR, compared to controls) turned out to be 71%. Besides, the “average tumor weight, less than controls” value in series [13] (day 30 at sacrifice) is on record as 88%.
